# Experimental data as given in PubChem BioAssay (NCI).
#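 Tested at 5 concentrations; 48 h exposure; 96-well plates; endpoints linearly interpolated, else capped at highest concentration. Abbreviation: GI50, concentration required for 50% inhibition of growth. TGI: concentration producing complete growth inhibition.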
# Columns and labels:
# Assay in all cases: NCI anticancer screen, dose series, 48 h
# [1] = tested on: OVCAR-4 ovarian
# [2] = tested on: SF-268 CNS
# [3] = tested on: 786-0 renal
# [4] = tested on: SK-MEL-2 melanoma
# [5] = tested on: MOLT-4 leukemia
# [6] = tested on: SF-295 CNS
# [7] = tested on: BT-549 breast
# [8] = tested on: HCT-15 colon
# [9] = tested on: NCI/ADR-RES ovarian
# [10] = tested on: SK-MEL-28 melanoma
# [11] = tested on: HCT-116 colon
# [12] = tested on: MDA-MB-231 breast
# [13] = tested on: RXF 393 renal
# [14] = tested on: A498 renal
# [15] = tested on: HS 578T breast
# [16] = tested on: HCC-2998 colon
# [17] = tested on: U251 CNS
# [18] = tested on: COLO 205 colon
# [19] = tested on: NCI-H460 lung
# [20] = tested on: HL-60(TB) leukemia
# [21] = tested on: DU-145 prostate
# [22] = tested on: M14 melanoma
# [23] = tested on: OVCAR-8 ovarian
# [24] = tested on: LOX IMVI melanoma
# [25] = tested on: HOP-92 NSCLC
# [26] = tested on: MCF7 breast
# [27] = tested on: KM12 colon
# [28] = tested on: SR leukemia
# [29] = tested on: NCI-H226 lung
# [30] = tested on: CCRF-CEM leukemia
# [31] = tested on: ACHN renal
# [32] = tested on: SF-539 CNS
# [33] = tested on: T-47D breast
# [34] = tested on: SNB-75 CNS
# [35] = tested on: OVCAR-3 ovarian
# [36] = tested on: TK-10 renal
# [37] = tested on: PC-3 prostate
# [38] = tested on: UACC-62 melanoma
# [39] = tested on: HT29 colon
# [40] = tested on: NCI-H23 lung
# [41] = tested on: MALME-3M melanoma
# [42] = tested on: SK-OV-3 ovarian
# [43] = tested on: UO-31 renal
# [44] = tested on: A549 NSCLC
# [45] = tested on: SK-MEL-5 melanoma
# [46] = tested on: HOP-62 NSCLC
# [47] = tested on: IGROV1 ovarian
# [48] = tested on: UACC-257 melanoma
# [49] = tested on: SW-620 colon
# [50] = tested on: SN12C renal
# [51] = tested on: OVCAR-5 ovarian
# [52] = tested on: MDA-MB-435
# [53] = tested on: EKVX NSCLC
# [54] = tested on: K-562 leukemia
# [55] = tested on: SNB-19 CNS
# [56] = tested on: RPMI-8226 leukemia
smiles,measurement,setting,value
CCC(=O)O[C@@H]([C@H](C)[C@H]1OC(CC)=C(C)C(=O)[C@@H]1C)[C@@H](C)C(=O)CC,GI50,[1],40.8 µM
same,TGI,[1],> 100 µM
same,GI50,[2],> 100 µM
same,TGI,[2],> 100 µM
same,GI50,[3],> 100 µM
same,TGI,[3],> 100 µM
same,GI50,[4],> 100 µM
same,TGI,[4],> 100 µM
same,GI50,[5],60 µM
same,TGI,[5],> 100 µM
same,GI50,[6],> 100 µM
same,TGI,[6],> 100 µM
same,GI50,[7],90.2 µM
same,TGI,[7],> 100 µM
same,GI50,[8],> 100 µM
same,TGI,[8],> 100 µM
same,GI50,[9],31.7 µM
same,TGI,[9],> 100 µM
same,GI50,[10],> 100 µM
same,TGI,[10],> 100 µM
same,GI50,[11],55.6 µM
same,TGI,[11],> 100 µM
same,GI50,[12],> 100 µM
same,TGI,[12],> 100 µM
same,GI50,[13],> 100 µM
same,TGI,[13],> 100 µM
same,GI50,[14],88.9 µM
same,TGI,[14],> 100 µM
same,GI50,[15],96.8 µM
same,TGI,[15],> 100 µM
same,GI50,[16],0.183 µM
same,TGI,[16],47 µM
same,GI50,[17],> 100 µM
same,TGI,[17],> 100 µM
same,GI50,[18],68.6 µM
same,TGI,[18],> 100 µM
same,GI50,[19],78.7 µM
same,TGI,[19],> 100 µM
same,GI50,[20],37.4 µM
same,TGI,[20],> 100 µM
same,GI50,[21],> 100 µM
same,TGI,[21],> 100 µM
same,GI50,[22],> 100 µM
same,TGI,[22],> 100 µM
same,GI50,[23],> 100 µM
same,TGI,[23],> 100 µM
same,GI50,[24],> 100 µM
same,TGI,[24],> 100 µM
same,GI50,[25],> 100 µM
same,TGI,[25],> 100 µM
same,GI50,[26],> 100 µM
same,TGI,[26],> 100 µM
same,GI50,[27],60.1 µM
same,TGI,[27],> 100 µM
same,GI50,[28],92.4 µM
same,TGI,[28],> 100 µM
same,GI50,[29],> 100 µM
same,TGI,[29],> 100 µM
same,GI50,[30],> 100 µM
same,TGI,[30],> 100 µM
same,GI50,[31],> 100 µM
same,TGI,[31],> 100 µM
same,GI50,[32],> 100 µM
same,TGI,[32],> 100 µM
same,GI50,[33],23.6 µM
same,TGI,[33],> 100 µM
same,GI50,[34],> 100 µM
same,TGI,[34],> 100 µM
same,GI50,[35],0.0316 µM
same,TGI,[35],0.751 µM
same,GI50,[36],> 100 µM
same,TGI,[36],> 100 µM
same,GI50,[37],59.6 µM
same,TGI,[37],> 100 µM
same,GI50,[38],60.8 µM
same,TGI,[38],> 100 µM
same,GI50,[39],53.6 µM
same,TGI,[39],> 100 µM
same,GI50,[40],37.8 µM
same,TGI,[40],> 100 µM
same,GI50,[41],> 100 µM
same,TGI,[41],> 100 µM
same,GI50,[42],> 100 µM
same,TGI,[42],> 100 µM
same,GI50,[43],> 100 µM
same,TGI,[43],> 100 µM
same,GI50,[44],> 100 µM
same,TGI,[44],> 100 µM
same,GI50,[45],53.6 µM
same,TGI,[45],> 100 µM
same,GI50,[46],> 100 µM
same,TGI,[46],> 100 µM
same,GI50,[47],19.9 µM
same,TGI,[47],> 100 µM
same,GI50,[48],> 100 µM
same,TGI,[48],> 100 µM
same,GI50,[49],> 100 µM
same,TGI,[49],> 100 µM
same,GI50,[50],> 100 µM
same,TGI,[50],> 100 µM
same,GI50,[51],32.7 µM
same,TGI,[51],> 100 µM
same,GI50,[52],> 100 µM
same,TGI,[52],> 100 µM
same,GI50,[53],> 100 µM
same,TGI,[53],> 100 µM
same,GI50,[54],61.6 µM
same,TGI,[54],> 100 µM
same,GI50,[55],> 100 µM
same,TGI,[55],> 100 µM
same,GI50,[56],66.8 µM
same,TGI,[56],> 100 µM
